pIC50: −log10 of the molar value. Entries after “also recorded” stand apart in the source; their conditions may differ. Where no end group is shown, it is not given here. The star is where a group is joined. Biotin = O=C1N[C@H]2[C@H](CS[C@H]2CCCCC(=O)*)N1; Ahx = NCCCCCC(=O)O
Columns and labels:
[1] = tested on: receptor:ligand complex (GH4 C1 membranes, [^125 I]Tyr11-S14); experiment: Detergent solubilization of specifically bound [^125 I]Tyr11-S14 from GH4 C1 membranes and recovery of intact complex (FIGS. 2, 3); settings: [^125 I]Tyr11-S14, FIG. 2
Description: (§1) To solubilize membranes, washed pellets after the binding step are resuspended free of visible particles by pipetting and vortexing in solubilization buffer+1/100 (vol/vol) of 100× 4Pase protease inhibitors+detergent at the desired concentration. After 1 hour on ice, the samples are centrifuged at 100,000×g for 30 minutes. The supernatants are removed and held on ice and the pellets are discarded.
(§2) Sephadex G-50 columns (8×130 mm) are equilibrated with solubilization buffer containing detergent at the concentration used to solubilize membranes and 1 mg/ml bovine serum albumin. 0.2-0.5 ml samples of solubilized membranes are applied to the columns and eluted at a flow rate of about 0.7 ml/minute. 0.18 ml samples are collected. Radioactivity is determined in a gamma counter as described under "Receptor Binding Methods". Void volumes of the columns are determined by the elution volume of blue dextran. Radioactivity eluting in the void volume (>50,000 MW) was considered bound to protein. […] The mixture is held on ice for 15 minutes. Then 3 ml of 0.1M sodium phosphate (pH 7.4) is added to a final part of 4 ml per sample and the samples are rapidly (1-3 seconds) filtered over Whatman GF/B glass fiber filters and washed with 4 ml of the phosphate buffer. […] Whatman GF/B glass fiber filters are soaked in 0.3% polyethyleneimine (PEI, Sigma) for 3 hours. 25-100 ul samples of solubilized membranes are placed in 12×75 mm polypropylene tubes. Then 4 ml of solubilization buffer (without detergent) is added per sample and the samples are immediately filtered through the GFB/PEI filters (1-3 seconds) and washed with 4 ml of solubilization buffer. […] 0.5 gm of Dextran T70 (Pharmacia) is dissolved in 1 liter of water and then 5 gm of activated charcoal (Norit A, alkaline; Fisher Scientific) is added. The suspension is stirred for 10 minutes at room temperature and then stored at 4° C. until use. To measure R:L complex, 4 parts by volume of charcoal/dextran suspension are added to 1 part by volume of solubilized membrane. The samples are mixed and held on ice for 2 minutes and then centrifuged for 2 minutes at 11,000×g in a Beckman microfuge. Free radioligand is adsorbed to charcoal/dextran and is discarded with the pellet.

streptavidin = experiment: Effect of detergent on binding of solubilized R:L complex to streptavidin (Table 2B); settings: for % of original R:L complex bound to SA: % R:L bound to SA × % solubilization of original R:L complex; for % of intact R:L nonbound to SA in 5 hours: streptavidin-agarose, charcoal/dextran assay
Description: The final determination is whether the detergent interferes with binding of the receptor:[^125 I]BioS-28. […] R:L complex in the supernatants ("non-bound to SA") after this time is measured by the charcoal/dextran assay. The % of non-bound, intact R:L complex is calculated from the ratio (R:L non-bound to SA/original R:L in the 100,000×g supernatant). The % of intact R:L complex bound to SA is calculated by subtracting % non-bound R:L from 100%. Finally, % of original R:L bound to SA=% R:L bound to SA×% solubilization of original membrane-bound R:L complex.

[2] = target: receptor:ligand complex (GH4 C1 membranes, [^125 I]BioS28) (Rattus norvegicus, UniProt P30680); experiment: Detergent solubilization of receptor:[^125 I]BioS28 complex, charcoal/dextran assay (Table 2A); settings: for Solubilization of specifically bound CPM (%): based on 14,013 cpm specifically bound [^125 I]BioS28 per sample; for Solubilized CPM in intact R:L complex (%): charcoal/dextran method; for solubilization and stabilization of receptor:ligand complex: [^125 I]BioS28, Table 2A
Chain of receptor:ligand complex (GH4 C1 membranes, [^125 I]BioS28) (P30680 whole entry, one chain of several): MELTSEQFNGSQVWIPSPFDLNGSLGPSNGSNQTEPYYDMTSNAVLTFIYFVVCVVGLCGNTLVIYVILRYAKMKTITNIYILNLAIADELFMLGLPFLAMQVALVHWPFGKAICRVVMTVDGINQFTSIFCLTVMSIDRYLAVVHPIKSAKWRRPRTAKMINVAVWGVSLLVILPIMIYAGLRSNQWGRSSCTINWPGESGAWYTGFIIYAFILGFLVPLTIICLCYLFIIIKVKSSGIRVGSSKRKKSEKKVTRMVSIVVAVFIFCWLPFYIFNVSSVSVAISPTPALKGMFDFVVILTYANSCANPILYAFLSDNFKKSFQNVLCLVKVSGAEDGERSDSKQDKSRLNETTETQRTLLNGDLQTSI
Description: as §1, §2
Membrane solubilization is conducted as already described; however, determination of the presence of the intact receptor:ligand complex in the 100,000×g supernatant is accomplished by charcoal/dextran assay ("Methods: Assay of Solubilized, 4.").

[3] = target: T1, SRIF receptor (GH4 C1 membranes) (Rattus norvegicus, UniProt P30680); experiment: Competitive radioligand binding vs [^125 I]Tyr11-S14 on GH4 C1 membranes (FIG. 4); settings: for pIC50: vs [^125 I]Tyr11-S14, 20 ug GH4 C1 membrane protein, 100,000 cpm (FIG. 4B)
T1 construct: GH4 C1 rat pituitary tumor cells; endogenous in cells; host or cells: GH4 C1 rat pituitary tumor cells (isolated membranes)
T1 sequence (P30680 whole entry): as the sequence (P30680 whole entry, one chain of several) above
Description: Membrane Isolation--1-8 liter batches of cells at densities of 6-10×10^5 cells/ml are pelleted in conical bottom glass centrifuge bottles (600 or 800 ml; Bellco) at 1,000× g for 5 min. The supernatants are carefully poured off and the cells are resuspended in ice cold homogenization medium (1 mM Na-bicarbonate at pH 7.6, 1 mM EDTA and 1 mM EGTA) containing 0.7% (vol/vol) of the "100×4pase" protease inhibitor cocktail (see below). Twenty ml of homogenization medium is used for every liter of suspension culture. After 5 min. on ice, the hypotonically swollen cells are homogenized with 10 strokes of a tight fitting Dounce homogenizer (Kontes, type A pestle). The homogenate is centrifuged at 1,000× g for 10 min. and the supernatant is removed and kept on ice. The 1,000× g pellet containing residual intact cells, nuclei and DNA is washed by gently homogenizing with 4 strokes with a type B pestle in one half the original volume of homogenization medium and recentrifuging for 10 min. at 1,000× g. The final 1,000× g pellet consists mostly of DNA and is discarded. The 1,000× g supernatants are combined and centrifuged at 20,000× g for 30 min. The 20,000× g pellet is washed twice in 25 mM Tris (pH 7.4), with centrifugation for 25 min. at 20,000 2 g. Final membrane pellets are resuspended in 25 mM Tris buffer to concentrations of 4-10 mg membrane protein/ml. Then the 100× 4pase protease inhibitor cocktails are added to 1% of final volume and aliquots are frozen on dry ice. Membranes are stored at -90° C. until needed. Membrane protein is assayed with the Bradford dye binding assay (Bio-Rad).
Standard Binding Assays--Binding assays are done in a binding buffer containing 50 mM HEPES (pH 7.4), 0.5% BSA and 5 mM MgCl2. The standard assay for [^125 I]SRIF analog binding to GH4 CL membranes, done in 96 well microtiter plates (Dynatech Immulon II Removawell plates), is carried out as follows: 1. Radioligand is diluted in binding buffer+PMSF/Baci to the desired cpm per vol. of 50 μl and then 50 μl aliquots are added to the wells. For non-specific binding samples, 5 μl of 40 μM cold S14 is also added per well. […] Binding is initiated by adding 150 μl per well of membrane diluted to the desired concentration (10-30 ug membrane protein/well) in binding buffer+PMSF/Baci. Plates are then covered with Linbro mylar plate sealers (Flow Labs) and placed on a Dynatech Microshaker II and binding is allowed to proceed at room temperature for 1-2 hours. Binding is stopped by centrifuging the plate for 15 minutes at 2,000×g. The supernatants are dumped off and membrane pellets washed once by addition of 200 μl of ice cold binding buffer, brief shaking and recentrifugation. Finally the individual wells are placed in 12×75 mm tubes and counted in an LKB Gammamaster counter (78% efficiency). […]

Row | Compound | solubilization of receptor:ligand complex / bound radioligand [1] | % of intact R:L bound to SA (100% - A) (streptavidin) [%] | % of original R:L complex bound to SA (streptavidin) [%] | % of intact R:L nonbound to SA in 5 hours (streptavidin) [%] | % Solubilization of original R:L in membranes (A × B) [2] [%] | Solubilization of specifically bound CPM (%) [2] [%] | Solubilized CPM in intact R:L complex (%) [2] [%] | solubilization and stabilization of receptor:ligand complex [2] | potency relative to S14 in competitive binding assay ([3]; % the potency of S14, 40 ug membrane protein, 85,000 cpm (FIG. 4A)) | pIC50 [3]
1 | C[C@H](CCC(=O)NCCC[N+](C)(C)CCCS(=O)(=O)[O-])[C@H]1CC[C@H]2[C@@H]3[C@H](O)C[C@@H]4C[C@H](O)CC[C@]4(C)[C@H]3C[C@H](O)[C@]12C [CHAPS] | total solubilization of radioligand is relatively low; also recorded: did not solubilize well at all at any concentration tested | 56 | 7 | 44 | 12 | 38 | 32 | – | – | –
2 | C[C@H](CCC(=O)O)[C@H]1CC[C@H]2[C@@H]3CC[C@@H]4C[C@H](O)CC[C@]4(C)[C@H]3C[C@H](O)[C@]12C [Deoxycholate] | superior solubilization | 89 | 29 | 11 | 31 | 93 | 33 | satisfactory results | – | –
3 | C[C@@H]1CC[C@@]2(OC1)O[C@H]1[C@@H](O)[C@H]3[C@@H]4CC[C@H]5C[C@@H](O[C@@H]6O[C@H](CO)[C@H](O[C@@H]7O[C@H](CO)[C@@H](O)[C@H](O[C@@H]8OC[C@@H](O)[C@H](O)[C@H]8O)[C@H]7O[C@@H]7O[C@H](CO)[C@H](O)[C@H](O[C@@H]8O[C@H](CO)[C@@H](O)[C@H](O)[C@H]8O)[C@H]7O)[C@H](O)[C@H]6O)[C@H](O)C[C@]5(C)[C@H]4CC[C@]3(C)[C@H]1[C@@H]2C [Digitonin] | less satisfactory but adequate levels of solubilization | 87 | 24 | 13 | 28 | 55 | 50 | satisfactory results | – | –
4 | Biotinyl-NH--SRIF14 [Bio-S14] | – | – | – | – | – | – | – | – | about 1.5% | –
5 | Biotinyl-[NH--(CH2)5 --CO]2 --NH-(Tyr11)SRIF14 ({Biotin-Ahx-Ahx}-AGCKNFFWKTYTSC; ends and bridges not checked; UniProt P61278 103-116, looked up, variant F11Y) [Bio-12C-S14] | – | – | – | – | – | – | – | – | – | 8.70
6 | Biotinyl-[NH--(CH2)5 --CO]--NH-(Tyr11)SRIF14 ({Biotin-Ahx}-AGCKNFFWKTYTSC; ends and bridges not checked; UniProt P61278 103-116, looked up, variant F11Y) [Bio-6C-S14] | – | – | – | – | – | – | – | – | – | 8.70
7 | Lysolecithin | less satisfactory but adequate levels of solubilization | 36 | 16 | 65 | 33 | 73 | 46 | satisfactory results | – | –

Reference: patent US5225543A, “Receptors method for purification of G protein-linked” (priority 1991, dated 1993)
